Assay results taken from the RepoRT retention time repository (doi:10.1016/j.foodchem.2012.08.062).

Experiment: RP, Waters ACQUITY UPLC BEH Shield RP18, 150 × 3 mm, 1.7 µm, 40 °C, 0.5 mL/min, estimated dead time 1.4 min; A: water + 0.1% formic acid; B: acetonitrile + 0.1% formic acid; gradient (min/%B) 0/0 9.91/26 18.51/65 18.76/100 20.76/100
Conditions: stereoisomer not certain

SMILES	LC retention time [min]
O=C(O)c1cc(O)c(O)c(O)c1	4.79
O=c1cc(-c2ccc(O)cc2)oc2cc(O)cc(O)c12	18
O=C(O)c1ccc(O)c(O)c1	7.05
Oc1cc(O)c2c(c1)OC(c1ccc(O)c(O)c1)C(O)C2c1c(O)cc(O)c2c1OC(c1ccc(O)c(O)c1)C(O)C2 (stereo not given)	10.2
O=C(O)C=Cc1ccc(O)cc1	12.7
COc1cc(C=CC(=O)O)cc(OC)c1O	12.7
O=C(CCc1ccc(O)cc1)c1c(O)cc(O)cc1O	17
O=C1c2c(O)cc(O)cc2OC(c2ccc(O)cc2)C1O (stereo not given)	14.8
COc1cc(C=CC(=O)O)ccc1O	12.8
CCCOC(=O)c1cc(O)c(O)c(O)c1	13.8
O=C1CC(c2ccc(O)cc2)Oc2cc(O)cc(O)c21 (stereo not given)	17.1
O=c1c(O)c(-c2ccccc2)oc2cc(O)cc(O)c12	20.3
O=C(O)c1ccccc1O	14.5
O=C(C=Cc1ccc(O)c(O)c1)OC1CC(O)(C(=O)O)CC(O)C1O (stereo not given)	8.3
O=C(O)CCc1ccc(O)c(O)c1	8.65
O=C(CCc1ccc(O)cc1)c1c(O)cc(O)cc1OC1OC(CO)C(O)C(O)C1O (stereo not given)	13.7
O=C(O)Cc1ccc(O)cc1	8.61
COc1cc(CCC(=O)O)ccc1O	11.3
O=c1c(O)c(-c2ccc(O)cc2)oc2cc(O)cc(O)c12	18.4
O=C1c2c(O)cc(O)cc2OC(c2ccc(O)c(O)c2)C1O (stereo not given)	13.3

Continued, values first:

LC retention time [min]	SMILES
13.7	O=c1cc(-c2ccc(O)cc2)oc2cc(OC3OC(CO)C(O)C(O)C3O)cc(O)c12 (stereo not given)
12.6	CC1OC(OCC2OC(Oc3c(-c4ccc(O)c(O)c4)oc4cc(O)cc(O)c4c3=O)C(O)C(O)C2O)C(O)C(O)C1O (stereo not given)
16.6	O=c1cc(-c2ccc(O)c(O)c2)oc2cc(O)cc(O)c12
16.7	O=c1c(O)c(-c2ccc(O)c(O)c2)oc2cc(O)cc(O)c12
18.1	COc1cc(-c2oc3cc(O)cc(O)c3c(=O)c2O)ccc1O
13.7	O=c1c(OC2OC(CO)C(O)C2O)c(-c2ccc(O)c(O)c2)oc2cc(O)cc(O)c12 (stereo not given)
13	CC1OC(OC2C(Oc3cc(O)c4c(c3)OC(c3ccc(O)cc3)CC4=O)OC(CO)C(O)C2O)C(O)C(O)C1O (stereo not given)
14	CC1OC(Oc2c(-c3ccc(O)c(O)c3)oc3cc(O)cc(O)c3c2=O)C(O)C(O)C1O (stereo not given)
13.8	O=c1c(OC2OC(CO)C(O)C(O)C2O)c(-c2ccc(O)cc2)oc2cc(O)cc(O)c12 (stereo not given)
12.7	O=c1cc(-c2ccc(O)c(O)c2)oc2cc(OC3OC(CO)C(O)C(O)C3O)cc(O)c12 (stereo not given)
